Measurements taken from PubChem BioAssay AID212 (DTP/NCI, 2004).
Several values for one entry are separate records, joined by “and”; a condition that tells them apart may be missing. Equal values may be shown once. Results filed as inconclusive are left out.

System: BDF1 mice, colon carcinoma 38 sc, T/C %
Test: NCI In Vivo Anticancer Drug Screen. Data for tumor model Colon Carcinoma 38 (subcutaneous) in B6D2F1 (BDF1) mice
Procedure, shortened: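 T/C readout: treated group (T) measurement over vehicle control group (C) measurement. Endpoint is survival or tumor size in mice bearing a transplanted tumor.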

[1] = endpoint: median tumor weight (est.), dose: 100.0 mg/kg/injection, schedule: Q07DX002 (ip), vehicle: saline with Tween-80, higher = larger tumour
[2] = endpoint: median tumor weight (est.), dose: 200.0 mg/kg/injection, schedule: Q07DX002 (ip), vehicle: saline with Tween-80, higher = larger tumour
[3] = endpoint: median tumor weight (est.), dose: 400.0 mg/kg/injection, schedule: Q07DX002 (ip), vehicle: saline with Tween-80, higher = larger tumour
[4] = endpoint: median tumor weight (est.), dose: 6.25 mg/kg/injection, schedule: Q07DX002 (ip), vehicle: Klucel (hydroxypropylcellulose) (HPC), higher = larger tumour
[5] = endpoint: median tumor weight (est.), dose: 12.5 mg/kg/injection, schedule: Q07DX002 (ip), vehicle: Klucel (hydroxypropylcellulose) (HPC), higher = larger tumour
[6] = endpoint: median tumor weight (est.), dose: 200.0 mg/kg/injection, schedule: Q07DX002 (ip), vehicle: Klucel (hydroxypropylcellulose) (HPC), higher = larger tumour
[7] = endpoint: median tumor weight (est.), dose: 12.5 mg/kg/injection, schedule: Q07DX002 (ip), vehicle: saline with Tween-80, higher = larger tumour
[8] = endpoint: median tumor weight (est.), dose: 25.0 mg/kg/injection, schedule: Q07DX002 (ip), vehicle: saline with Tween-80, higher = larger tumour
[9] = endpoint: median tumor weight (est.), dose: 50.0 mg/kg/injection, schedule: Q07DX002 (ip), vehicle: saline with Tween-80, higher = larger tumour
[10] = endpoint: median tumor weight (est.), dose: 25.0 mg/kg/injection, schedule: Q07DX002 (ip), vehicle: Klucel (hydroxypropylcellulose) (HPC), higher = larger tumour

## O=C(N[C@H](CO)[C@H](O)c1ccc([N+](=O)[O-])cc1)C(Cl)Cl
[1]
  T/C: 60 % of control
endpoint: median tumor weight (est.), dose: 112.0 mg/kg/injection, schedule: Q07DX002 (ip), vehicle: saline with Tween-80, higher = larger tumour
  T/C: 72 % of control
[2]
  T/C: 91 % of control
endpoint: median tumor weight (est.), dose: 225.0 mg/kg/injection, schedule: Q07DX002 (ip), vehicle: saline + Tween-80 + alcohol, higher = larger tumour
  T/C: 44 % of control
endpoint: median tumor weight (est.), dose: 225.0 mg/kg/injection, schedule: Q07DX002 (ip), vehicle: saline with Tween-80, higher = larger tumour
  T/C: 95 % of control
[3]
  T/C: 112 % of control
endpoint: median tumor weight (est.), dose: 450.0 mg/kg/injection, schedule: Q07DX002 (ip), vehicle: saline + Tween-80 + alcohol, higher = larger tumour
  T/C: 85 % of control
endpoint: median tumor weight (est.), dose: 450.0 mg/kg/injection, schedule: Q07DX002 (ip), vehicle: saline with Tween-80, higher = larger tumour
  T/C: 87 % of control and 94 % of control
endpoint: median tumor weight (est.), dose: 800.0 mg/kg/injection, schedule: Q07DX002 (ip), vehicle: saline with Tween-80, higher = larger tumour
  T/C: 68 % of control
endpoint: median tumor weight (est.), dose: 900.0 mg/kg/injection, schedule: Q07DX002 (ip), vehicle: saline + Tween-80 + alcohol, higher = larger tumour
  T/C: 41 % of control
endpoint: median tumor weight (est.), dose: 900.0 mg/kg/injection, schedule: Q07DX002 (ip), vehicle: saline with Tween-80, higher = larger tumour
  T/C: 118 % of control

## CC12CCC3C(CCC4CC(OC(=O)Cc5ccc(N(CCCl)CCCl)cc5)CCC43C)C1CCC(=O)N2 (centres undefined)
endpoint: median tumor weight (est.), dose: 1.5 mg/kg/injection, schedule: Q07DX002 (ip), vehicle: saline with Tween-80, higher = larger tumour
  T/C: 121 % of control
endpoint: median tumor weight (est.), dose: 3.0 mg/kg/injection, schedule: Q07DX002 (ip), vehicle: saline with Tween-80, higher = larger tumour
  T/C: 77 % of control and 91 % of control
endpoint: median tumor weight (est.), dose: 6.0 mg/kg/injection, schedule: Q07DX002 (ip), vehicle: saline with Tween-80, higher = larger tumour
  T/C: 47 % of control and 48 % of control
endpoint: median tumor weight (est.), dose: 24.0 mg/kg/injection, schedule: Q07DX002 (ip), vehicle: saline with Tween-80, higher = larger tumour
  T/C: 27 % of control and 33 % of control

## COc1cc([C@@H]2c3cc4c(c(O)c3C[C@H]3COC(=O)[C@@H]32)OCO4)cc(OC)c1O
endpoint: median tumor weight (est.), dose: 0.5 mg/kg/injection, schedule: Q07DX002 (ip), vehicle: saline, higher = larger tumour
  T/C: 78 % of control
endpoint: median tumor weight (est.), dose: 1.0 mg/kg/injection, schedule: Q07DX002 (ip), vehicle: saline, higher = larger tumour
  T/C: 65 % of control
endpoint: median tumor weight (est.), dose: 2.0 mg/kg/injection, schedule: Q07DX002 (ip), vehicle: saline, higher = larger tumour
  T/C: 81 % of control
endpoint: median tumor weight (est.), dose: 4.0 mg/kg/injection, schedule: Q07DX002 (ip), vehicle: saline, higher = larger tumour
  T/C: 123 % of control

## CC(=O)OC1=NC(C)c2c1cc(OC(C)=O)[nH]c2=O (centres undefined)
[4]
  T/C: 124 % of control
[5]
  T/C: 70 % of control and 85 % of control
[6]
  T/C: 100 % of control

## Oc1cc2ccccc2c(-c2c(O)c(O)cc3ccccc23)c1O
[7]
  T/C: 94 % of control
[8]
  T/C: 119 % of control
[9]
  T/C: 114 % of control
[1]
  T/C: 81 % of control
[2]
  T/C: 64 % of control
[3]
  T/C: 64 % of control

## CN=C(N)N/N=C(\C)c1ccc2oc3ccc(/C(C)=N/NC(N)=NC)cc3c2c1
[8]
  T/C: 117 % of control
[9]
  T/C: 100 % of control
[1]
  T/C: 66 % of control

## Cn1c(=O)c2ncnnc2n(C)c1=O
endpoint: median tumor weight (est.), dose: 3.12 mg/kg/injection, schedule: Q07DX002 (ip), vehicle: Klucel (hydroxypropylcellulose) (HPC), higher = larger tumour
  T/C: 75 % of control
[4]
  T/C: 84 % of control
[5]
  T/C: 78 % of control
[10]
  T/C: 62 % of control

## O=C(O)CSc1nc(-c2ccccc2)c(-c2ccccc2)n1-c1ccccn1
[5]
  T/C: 92 % of control
[10]
  T/C: 83 % of control
endpoint: median tumor weight (est.), dose: 25.0 mg/kg/injection, schedule: Q07DX002 (ip), vehicle: water, higher = larger tumour
  T/C: 114 % of control
endpoint: median tumor weight (est.), dose: 50.0 mg/kg/injection, schedule: Q07DX002 (ip), vehicle: Klucel (hydroxypropylcellulose) (HPC), higher = larger tumour
  T/C: 72 % of control
endpoint: median tumor weight (est.), dose: 50.0 mg/kg/injection, schedule: Q07DX002 (ip), vehicle: water, higher = larger tumour
  T/C: 112 % of control
endpoint: median tumor weight (est.), dose: 100.0 mg/kg/injection, schedule: Q07DX002 (ip), vehicle: Klucel (hydroxypropylcellulose) (HPC), higher = larger tumour
  T/C: 106 % of control
endpoint: median tumor weight (est.), dose: 100.0 mg/kg/injection, schedule: Q07DX002 (ip), vehicle: water, higher = larger tumour
  T/C: 95 % of control
[6]
  T/C: 73 % of control
endpoint: median tumor weight (est.), dose: 200.0 mg/kg/injection, schedule: Q07DX002 (ip), vehicle: water, higher = larger tumour
  T/C: 89 % of control

## CC(C)(C)N1CC1CNC(=O)C(=O)NCC1CN1C(C)(C)C (centres undefined)
endpoint: median tumor weight (est.), dose: 3.12 mg/kg/injection, schedule: Q07DX002 (ip), vehicle: saline with Tween-80, higher = larger tumour
  T/C: 81 % of control and 106 % of control

## Cc1c2ccccc2c(C)c2c1cc(C(=O)O)c1ccccc12
endpoint: median tumor weight (est.), dose: 62.5 mg/kg/injection, schedule: Q07DX002 (ip), vehicle: other, higher = larger tumour
  T/C: 67 % of control
endpoint: median tumor weight (est.), dose: 125.0 mg/kg/injection, schedule: Q07DX002 (ip), vehicle: other, higher = larger tumour
  T/C: 101 % of control
endpoint: median tumor weight (est.), dose: 250.0 mg/kg/injection, schedule: Q07DX002 (ip), vehicle: other, higher = larger tumour
  T/C: 152 % of control
endpoint: median tumor weight (est.), dose: 500.0 mg/kg/injection, schedule: Q07DX002 (ip), vehicle: other, higher = larger tumour
  T/C: 58 % of control
endpoint: median tumor weight (est.), dose: 1000.0 mg/kg/injection, schedule: Q07DX002 (ip), vehicle: other, higher = larger tumour
  T/C: 87 % of control

## COc1cc(C)c2c(c1C=O)Oc1c(c(C)c(O)c3c1C(O)OC3=O)OC2=O (centres undefined)
endpoint: median tumor weight (est.), dose: 3.12 mg/kg/injection, schedule: Q07DX003 (ip), vehicle: suspension in saline, higher = larger tumour
  T/C: 93 % of control
endpoint: median tumor weight (est.), dose: 6.25 mg/kg/injection, schedule: Q07DX003 (ip), vehicle: suspension in saline, higher = larger tumour
  T/C: 60 % of control
endpoint: median tumor weight (est.), dose: 12.5 mg/kg/injection, schedule: Q07DX003 (ip), vehicle: suspension in saline, higher = larger tumour
  T/C: 65 % of control
endpoint: median tumor weight (est.), dose: 25.0 mg/kg/injection, schedule: Q07DX003 (ip), vehicle: suspension in saline, higher = larger tumour
  T/C: 93 % of control
endpoint: median tumor weight (est.), dose: 50.0 mg/kg/injection, schedule: Q07DX003 (ip), vehicle: suspension in saline, higher = larger tumour
  T/C: 87 % of control

## CCCCCCCCCCCCSC1=C(Cl)C(=O)C(OC)=C(OC)C1=O
[8]
  T/C: 110 % of control and 97 % of control
[9]
  T/C: 91 % of control and 96 % of control
[2]
  T/C: 104 % of control

## COc1cccc2c1C(=O)c1c(O)c3c(c(O)c1C2=O)C[C@@](O)(C(C)=O)C[C@@H]3OC1CC(N(Cc2ccccc2)Cc2ccccc2)C(O)C(C)O1 (some centres undefined)
endpoint: median survival time, dose: 43.0 mg/kg/injection, schedule: Q07DX003 (sc), vehicle: saline with Tween-80, higher = longer survival
  T/C: 152 % of control
endpoint: median survival time, dose: 69.0 mg/kg/injection, schedule: Q07DX003 (sc), vehicle: saline with Tween-80, higher = longer survival
  T/C: 170 % of control
endpoint: median survival time, dose: 112.0 mg/kg/injection, schedule: Q07DX003 (sc), vehicle: saline with Tween-80, higher = longer survival
  T/C: 220 % of control
endpoint: median survival time, dose: 180.0 mg/kg/injection, schedule: Q07DX003 (sc), vehicle: saline with Tween-80, higher = longer survival
  T/C: 254 % of control
endpoint: median tumor weight (est.), dose: 6.75 mg/kg/injection, schedule: Q07DX002 (ip), vehicle: distilled water + Tween-80, higher = larger tumour
  T/C: 108 % of control
endpoint: median tumor weight (est.), dose: 13.5 mg/kg/injection, schedule: Q07DX002 (ip), vehicle: distilled water + Tween-80, higher = larger tumour
  T/C: 57 % of control
endpoint: median tumor weight (est.), dose: 27.0 mg/kg/injection, schedule: Q07DX002 (ip), vehicle: distilled water + Tween-80, higher = larger tumour
  T/C: 13 % of control
endpoint: median tumor weight (est.), dose: 27.0 mg/kg/injection, schedule: Q07DX002 (ip), vehicle: saline with Tween-80, higher = larger tumour
  T/C: 39 % of control and 50 % of control
endpoint: median tumor weight (est.), dose: 54.0 mg/kg/injection, schedule: Q07DX002 (ip), vehicle: saline with Tween-80, higher = larger tumour
  T/C: 8 % of control
endpoint: median tumor weight (est.), dose: 108.0 mg/kg/injection, schedule: Q07DX002 (ip), vehicle: saline with Tween-80, higher = larger tumour
  T/C: 3 % of control

## CN1CCN(c2ccc([N+](=O)[O-])c3no[n+]([O-])c23)CC1
endpoint: median tumor weight (est.), dose: 5.0 mg/kg/injection, schedule: Q07DX002 (ip), vehicle: saline with Tween-80, higher = larger tumour
  T/C: 105 % of control
endpoint: median tumor weight (est.), dose: 20.0 mg/kg/injection, schedule: Q07DX002 (ip), vehicle: saline with Tween-80, higher = larger tumour
  T/C: 77 % of control
endpoint: median tumor weight (est.), dose: 40.0 mg/kg/injection, schedule: Q07DX002 (ip), vehicle: saline with Tween-80, higher = larger tumour
  T/C: 68 % of control

## O=C(Nc1ccc(C2=NCCN2)cc1)c1ccc(C(=O)Nc2ccc(C3=NCCN3)cc2)c(Cl)c1
endpoint: median tumor weight (est.), dose: 6.25 mg/kg/injection, schedule: Q07DX002 (ip), vehicle: saline with Tween-80, higher = larger tumour
  T/C: 117 % of control
[7]
  T/C: 117 % of control
[9]
  T/C: 118 % of control
